The subject of assay [1] is high-affinity choline transporter. The experiment in a line: [3H]hemicholinium-3 binding to hippocampal membrane samples after pre-incubation with drug; Scatchard-plot. Further details: species or system rats. How it is done: The action of the compound of the formula (I), particularly 4-acylamino-5,6,7,8-tetrahydrofuro[2,3-b]quinoline derivative, relative to the density of the high-affinity choline transporter on the nerve terminal was examined using [^3H]hemicholinium-3, which is a specific labeled ligand of a high-affinity choline transporter (SYNAPSE No. 1, pp. 293-303, 1987). The aforementioned AF64A-treated rats were used in this test, too. Hippocampal membrane samples (P2 fraction) were prepared according to a conventional method from the AF64A-treated animals and the sham operation animals. These membrane samples were incubated in Ringer's solution with Compound A at each concentration or a solvent (vehicle) at 37° C. for 30 min. After the completion of the incubation, the drug was removed from the reaction mixture by centrifugation at 4° C. and the membrane samples were washed. The drug-treated membrane samples thus obtained were suspended in a solution containing [^3H] hemicholinium-3, and incubated overnight at 4° C. […] After thorough drying, a scintillator was added and the radioactivity of the membrane samples was measured on a liquid scintillation counter. […] For the analysis of binding mode, Scatchard-plot was used and the maximum binding Bmax and dissociation constant Kd were calculated.

Assay [2] deals with high-affinity choline uptake of hippocampal synaptosome (membrane sample). Description: Effect on high-affinity choline uptake, [3H]choline, hippocampal synaptosome (membrane sample, P2 fraction) of AF64A-treated rats, in vitro incubation. In kind it is biochemical, male Wistar rats. The following applies: membrane samples with choline uptake reduced by AF64A treatment; incubation 37° C. 30 min; FIG. 1. How it is done:
The action of the compound of the formula (I), particularly 4-acylamino-5,6,7,8-tetrahydrofuro[2,3-b]quinoline derivative, on the high-affinity choline uptake was examined using [^3H] choline and hippocampal synaptosome (membrane sample). AF64A (3 μmol), which is a neurotoxin specific to the cholinergic nerve, was administered to male Wistar rats into the cerebral ventricles bilaterally. The rats were subjected to an experiment after a recovery period of about 10 days. Hippocampal membrane samples (P2 fraction) were prepared by a conventional method from these animals and the animals that underwent a sham operation. These membrane samples were incubated in Ringer's solution with Compound A at each concentration or a solvent (vehicle) at 37° C. for 30 min. [^3H] Choline was added to the reaction mixture, and the mixture was incubated for 10 min. After the completion of the incubation, the membrane samples were filtrated on a glass fiber filter using a cell harvester and washed three times with a buffer. After thorough drying, a scintillator was added and the radioactivity of the membrane samples was measured on a liquid scintillation counter. Non-specific uptake was done under ice-cooling.

In assay [3] the test system is high-affinity choline uptake of hippocampal membrane samples. The experiment in a line: Sustention of action on high-affinity choline uptake: hippocampal membrane samples prepared after single or consecutive administration to AF64A-treated rats. The following applies: for HACU promotion: FIG. 6. In kind it is in vivo. An excerpt:
(§1) Because the compound of the formula (I), particularly 4-acylamino-5,6,7,8-tetrahydrofuro[2,3-b]quinoline derivative, has the above-mentioned mechanism, the promoting action on the high-affinity choline uptake is considered to be dependent on the density of high-affinity choline transporters on the nerve terminal, and therefore, to show a shift independent of the elimination rate of a drug. To clarify this point, the sustained promoting action on the high-affinity choline uptake was examined by monitoring the changes in efficacy when the aforementioned AF64A-treated rats were subjected to single and consecutive administration(s) of a drug. In the test, Compound A at each concentration or a solvent (vehicle) was administered singly or consecutively to AF64A-treated animals and the animals that underwent a sham operation. After a given time, the animals were slaughtered and hippocampal membrane samples (P2 fraction) were prepared by a conventional method. These membrane samples were incubated in Ringer's solution supplemented with [^3H) choline at 37° C. for 10 min. After the completion of the incubation, the membrane samples were filtrated on a glass fiber filter using a cell harvester and washed three times with a buffer. After thorough drying, a scintillator was added and the radioactivity of the membrane samples was measured on a liquid scintillation counter. The non-specific uptake was that in the presence of hemicholinium-3 (10 μM) in a sodium ion free Ringer's solution. To establish the close relationship between the efficacy observed here and an improving action on the dementia symptoms, the improving effect on the water maze-learning disorder observed in the AF64A-treated rats was also studied at a given time after drug administration for 8 consecutive days.

The next assay has as its system AF64A-treated rats. The experiment in a line: Water maze-learning disorder test in AF64A-treated rats. Format: in vivo. The following applies: FIG. 7.
Source text: as §1, with “The non-specific uptake was that in the presence of hemicholinium-3 (10 μM) in a sodium ion free Ringer's solution. To establish the close relationship between the efficacy observed here and an improving action on the dementia symptoms, the improving effect on the water maze-learning disorder observed in the AF64A-treated rats was also studied at a given time after drug administration for 8 consecutive days.” left out

For the molecule `Cc1oc2nc3c(c(NC(=O)CN4CCCC4=O)c2c1C)CCCC3` [Compound A, 2-(2-oxopyrrolidin-1-yl)-N-(2,3-dimethyl-5,6,7,8-tetrahydrofuro[2,3-b)quinolin-4-yl)acetamide], in assay [1] (Scatchard-plot analysis, FIG. 3), the “action on maximum binding Bmax of hemicholinium-3 (transporter number on membrane surface)” value is “increasing action on the maximum binding Bmax”. In assay [1] (incubation in advance with drug, 37° C. 30 min, FIG. 2), the “binding of [3H]hemicholinium-3 on the hippocampal membrane sample” value is “increased dose-dependently”. Also, the “choline uptake of hippocampal membrane samples” value in assay [2] was “significantly improved”. Further, the HACU promotion entry in assay [3] (24 h after administration for 4 consecutive days) is reported as “significant HACU promotion was not observed”; in assay [3] (24 h after administration for 16 consecutive days), “same level of improving effect as with the administration for 8 consecutive days”. The HACU promoting action result in assay [3] (administration for 8 consecutive days, 24 h from the final administration, FIG. 5) was “significant HACU promoting action was observed”; in assay [3] (administration for 8 consecutive days, 48 h later, FIG. 5) it was “sustained”; in assay [3] (administration for 8 consecutive days, 72 h, FIG. 5), “disappeared”; in assay [3] (single administration, 1 h after administration, FIG. 4), “significant promotion of HACU”; in assay [3] (single administration, 3 h after administration, FIG. 4), “significant promotion of HACU”; in assay [3] (single administration, 24 h later, FIG. 4) it was “attenuated”. The “improving effect on learning disorder (water maze)” value in the assay with AF64A-treated rats (24 h after the administration for 8 consecutive days) and in the assay with AF64A-treated rats (48 h after the administration for 8 consecutive days) was “significant improving effect on learning disorder” in each case.

The record behind these values is US20040235884A1, “Preventives/remedies for cholinergic neuropathy” (priority 2001, published 2004).
